Measured values published in article PMC5486949 (SLAS discovery, 2017).
Structures can show the parent of a compound that is named as a salt. Where two headings read alike, the source gives them in different places.

Legend:
[1] = biological target: ERRα; experiment: ERR luciferase reporter gene assay, agonist mode; format: cell-based, human; conditions: for EC50: read-out: ERRα (Agonist) EC50; for AC50: read-out: AC50 ERR ↑
[2] = system: PGC-1α/ERRα; experiment: PGC/ERR luciferase reporter gene assay, agonist mode; format: cell-based, human; conditions: Homo sapiens; for AC50: read-out: AC50 PGC-ERR ↑; for EC50: read-out: PGC-1α/ERRα (Agonist) EC50
[3] = system: ERR and PGC/ERR cell lines; experiment: Cell viability; conditions: agonist mode, ERR and PGC/ERR lines (Fig. 3A,B)
[4] = system: ERRα; experiment: ERR luciferase reporter gene assay, antagonist mode; format: cell-based, human; conditions: for AC50: read-out: AC50 ERR↓; for IC50: read-out: ERRα (Antagonist) IC50
[5] = system: PGC-1α/ERRα; experiment: PGC/ERR luciferase reporter gene assay, antagonist mode; format: cell-based, human; conditions: for AC50: read-out: AC50 PGC/ERR ↓; for IC50: read-out: PGC-1α/ERRα (Antagonist) IC50
[6] = system: aryl hydrocarbon receptor (AhR); conditions: cited from earlier work
[7] = system: ERR cell line (HEK293T); experiment: Cell viability assay multiplexed with ERR antagonist mode assay; format: cell-based, human; conditions: Homo sapiens, HEK-293T, read-out: ERRα (Viability) IC50
[8] = LOPAC qHTS, dash = inconclusive or no activity
[9] = antagonist mode, 0 = inactive or inconclusive

Compound: O=C1Nc2ccccc2/C1=C1/Nc2ccccc2/C1=N\O [Indirubin-3′-oxime]
- EC50 [1, 8]: 2660 nM

Compound: O=C1Cc2c([nH]c3ccc(Br)cc23)-c2ccccc2N1 [Kenpaullone]
- AC50 ([1]; Homo sapiens): 2950 nM
- EC50 ([1]; Homo sapiens): 2980 nM
- AC50 [2]: 1.32 µM
- EC50 [2]: 1.33 µM
- cytotoxicity at concentrations of outfitted points of agonist curves [3]: cytotoxicity did not appear to be the direct cause for the outfitted points

Compound: CC[N+](CC)(CC)CCOc1ccc(/C=C/c2ccccc2)cc1 [MG 624]
- AC50 ([4]; Homo sapiens): 10.5 µM
- IC50 ([4]; Homo sapiens): 9.44 µM
- AC50 ([5]; Homo sapiens): 11.7 µM
- IC50 ([5]; Homo sapiens): 12.6 µM

Compound: CC[C@H](C)C(=O)O[C@H]1CCC=C2C=C[C@H](C)[C@H](CC[C@@H]3C[C@@H](O)CC(=O)O3)[C@H]21 [Mevastatin]
- EC50 ([1]; Homo sapiens): 2980 nM

Compound: CC#C[C@]1(O)CC[C@H]2[C@@H]3CCC4=CC(=O)CCC4=C3[C@@H](c3ccc(N(C)C)cc3)C[C@@]21C [Mifepristone]
- IC50 ([4]; Homo sapiens): 23.7 µM

Compound: Nc1ccc(CCNc2ncnc3c2ncn3[C@@H]2O[C@H](CO)[C@@H](O)[C@H]2O)cc1 [N6-2-(4-Aminophenyl)ethyladenosine]
- EC50 [2]: 11.9 µM

Compound: OC[C@H]1O[C@@H](n2cnc3c(NC4CCCC4)ncnc32)[C@H](O)[C@@H]1O [N6-Cyclopentyladenosine]
- EC50 [2]: 2.98 µM

Compound: COC(=O)Nc1nc2ccc(C(=O)c3cccs3)cc2[nH]1 [Nocodazole]
- EC50 [2]: 1.88 µM

Compound: COc1cccc(-c2cc(=O)c3ccccc3o2)c1N [PD 98,059]
- EC50 [1, 8]: 2110 nM

Compound: CCCCCCCCCCCCCC(=O)O[C@@H]1[C@@H](C)[C@@]2(O)[C@@H](C=C(CO)C[C@]3(O)C(=O)C(C)=C[C@@H]23)[C@@H]2C(C)(C)[C@]12OC(C)=O [Phorbol 12-myristate 13-acetate]
- AC50 ([1]; Homo sapiens): 8.32 nM
- EC50 ([1]; Homo sapiens): 10 nM
- AC50 [2]: 0.00661 µM
- EC50 [2]: 0.01 µM
- cytotoxicity at concentrations of outfitted points of agonist curves [3]: cytotoxicity was seen at the concentration accompanying the outfitted points

Compound: Oc1cc(O)cc(/C=C/c2ccc(O)c(O)c2)c1 [Piceatannol]
- AC50 ([1]; Homo sapiens): 8320 nM
- EC50 ([1]; Homo sapiens): 8410 nM
- AC50 [2]: 18.6 µM
- EC50 [2]: 18.8 µM

Compound: CC(=O)[C@H]1CC[C@H]2[C@@H]3CCC4=CC(=O)CC[C@]4(C)[C@H]3CC[C@]12C [Progesterone]
- IC50 ([4]; Homo sapiens): 11.9 µM

Compound: Cc1cccc(-c2[nH]ncc2-c2ccc3ncccc3n2)n1 [RepSox]
- AC50 ERR↓ [4]: 5.88 log10(M)*–1
- IC50 [4]: 1.33 µM
- AC50 PGC/ERR ↓ [5]: 5.93 log10(M)*–1
- IC50 [5]: 1.19 µM

Compound: Oc1ccc(/C=C/c2cc(O)cc(O)c2)cc1 [Resveratrol]
- AC50 ([1]; Homo sapiens): 3310 nM
- EC50 ([1]; Homo sapiens): 3350 nM
- AC50 [2]: 11.7 µM
- EC50 [2]: 11.9 µM

Compound: Cc1nc2sccn2c(=O)c1CCN1CCC(=C(c2ccc(F)cc2)c2ccc(F)cc2)CC1 [Ritanserin]
- IC50 ([4]; Homo sapiens): 16.8 µM

Compound: O=c1c2ccccc2nc2n1CCc1c-2[nH]c2ccccc12 [Rutaecarpine]
- AC50 ([1]; Homo sapiens): 2340 nM
- EC50 ([1]; Homo sapiens): 2370 nM
- AC50 [2]: 13.2 µM
- EC50 [2]: 13.3 µM
- AC50 AhR ↑ [6]: 5.53 log10(M)*–1

Compound: Oc1ccc(-c2nc(-c3ccncc3)c(-c3ccc(F)cc3)[nH]2)cc1 [SB 202190]
- IC50 ([4]; Homo sapiens): 10.6 µM

Compound: Cc1ccc(O)c(N=Nc2ccccc2)n1 [SIB 1757]
- EC50 [1, 8]: 8410 nM

Compound: Cc1cccc(/C=C/c2ccccc2)n1 [SIB 1893]
- EC50 [1, 8]: 13300 nM

Compound: COc1ccc(CCCOC(Cn2ccnc2)c2ccc(OC)cc2)cc1 (centres unmarked) [SKF 96365]
- IC50 ([4]; Homo sapiens): 17.8 µM

Compound: C=CCNc1ncnc2ccc(Br)cc12 [SMER28]
- AC50 ERR↓ [4, 9]: 5.03 log10(M)*–1
- AC50 PGC/ERR ↓ [5, 9]: 4.98 log10(M)*–1

Compound: CN(C)c1ccc(C=C2C(=O)Nc3ccccc32)cc1 [SU 4312]
- EC50 [1, 8]: 3350 nM

Compound: CN(C)S(=O)(=O)c1ccc2c(c1)/C(=C/c1cc3c([nH]1)CCCC3)C(=O)N2 [SU 6656]
- EC50 [2]: 23.7 µM

Compound: CC(=O)S[C@@H]1CC2=CC(=O)CC[C@]2(C)[C@H]2CC[C@@]3(C)[C@@H](CC[C@@]34CCC(=O)O4)[C@H]12 [Spironolactone]
- AC50 ([4]; Homo sapiens): 16.6 µM
- IC50 ([4]; Homo sapiens): 18.8 µM
- AC50 ([5]; Homo sapiens): 9.33 µM
- IC50 ([5]; Homo sapiens): 9.44 µM

Compound: CCN1/C(=C/C(C)=O)Sc2ccc(OC)cc21 [TG003]
- AC50 ERR↓ [4, 9]: 4.93 log10(M)*–1
- AC50 PGC/ERR ↓ [5, 9]: 5.23 log10(M)*–1

Compound: C/C=C(/C)C(=O)O[C@H]1C(C)=C2[C@H]([C@@H]1OC(=O)CCCCCCC)[C@@](C)(OC(C)=O)C[C@H](OC(=O)CCC)[C@@]1(O)[C@H]2OC(=O)[C@@]1(C)O [Thapsigargin]
- IC50 ([4]; Homo sapiens): 0.24 µM
- IC50 [7]: 10.6 µM

Compound: COc1ccc(/C=C/C(=O)Nc2ccccc2C(=O)O)cc1OC [Tranilast]
- EC50 ([1]; Homo sapiens): 1680 nM

Compound: COc1cc2c(cc1OC)-c1c/c(=N\c3c(C)cc(C)cc3C)n(C)c(=O)n1CC2 [Trequinsin hydrochloride]
- IC50 ([4]; Homo sapiens): 16.8 µM

Compound: CC(C)(C)c1cc(/C=C(\C#N)C(N)=S)cc(C(C)(C)C)c1O [Tyrphostin AG 879]
- IC50 ([4]; Homo sapiens): 2.37 µM
